Key:
Commelina benghalensis = assay: Field trial of triple mixes of amicarbazone, pre-emergence weed control; assay type: in vivo; settings: dose g ai/ha: Amicarbazone 75, Mesotrione 38, Ametryn 250, mix AMC + AME + MST 75 + 38 + 250
Method: (§1) Field trials were done to evaluate the efficacy and synergism of the triple mixes of amicarbazone with other herbicides for the control of weeds in pre and post-emergence application.
(§2) The composition of the present invention was applied. This test was performed for species of weeds: Grasses namely BRADC=Brachiaria decumbens, CCHEC=Cenchrus echinatus, ELEIN=Eleusine indica, TRCIN=Digitaria insularis and Broadleaves namely IAQGR=Ipomoea grandifolia, EPHHL=Euphorbia heterophylla, COMBE=Commelina benghalensis. Data were collected at various period after application of the composition to the soil and calculated.

Eleusine indica = assay: Field trial of triple mixes of amicarbazone, pre and post-emergence weed control; assay type: in vivo; settings: Table 10, dose g ai/ha: Amicarbazone 75, Mesotrione 38, Ametryn 250, mix AMC + AME + MST 75 + 38 + 250
Method: as §1, §2

Structure (SMILES): CS(=O)(=O)c1ccc(C(=O)C2C(=O)CCCC2=O)c([N+](=O)[O-])c1 [Mesotrione]
- % Control (Commelina benghalensis; Table 11, 21 DAA): 67.5%
- % Control (Commelina benghalensis; Table 11, 28 DAA): 65.0%
- % Control (Commelina benghalensis; Table 11, 35 DAA): 51.3%
- % Control (Eleusine indica; Post-Emergence, 14 DAA): 57.5%
- % Control (Eleusine indica; Post-Emergence, 21 DAA): 43.8%
- % Control (Eleusine indica; Post-Emergence, 28 DAA): 35.0%
- % Control (Eleusine indica; Pre-Emergence, 14 DAA): 26.3%
- % Control (Eleusine indica; Pre-Emergence, 21 DAA): 2.5%
- % Control (Eleusine indica; Pre-Emergence, 28 DAA): 0.0%

Structure (SMILES): CCNc1nc(NC(C)C)nc(SC)n1 [Ametryn]
- % Control (Commelina benghalensis; Table 11, 21 DAA): 15.0%
- % Control (Commelina benghalensis; Table 11, 28 DAA): 8.8%
- % Control (Commelina benghalensis; Table 11, 35 DAA): 2.5%
- % Control (Eleusine indica; Post-Emergence, 14 DAA): 53.8%
- % Control (Eleusine indica; Post-Emergence, 21 DAA): 27.5%
- % Control (Eleusine indica; Post-Emergence, 28 DAA): 22.5%
- % Control (Eleusine indica; Pre-Emergence, 14 DAA): 51.3%
- % Control (Eleusine indica; Pre-Emergence, 21 DAA): 42.5%
- % Control (Eleusine indica; Pre-Emergence, 28 DAA): 35.0%

— patent US12685315B2, “Herbicidal combination” (UPL do Brasil Industria e Comercio de Insumos Agropecuarios …, priority 2019, dated 2026)
